Marks after values point to notes of the source that are not given here.
Columns and labels:
[1] = Cardiovascular safety pharmacology by telemetry; settings: rats; 50 or 250 mg/Kg oral, single or repeated (7 days)
Method: Data are presented as mean±S.E.M. Statistical analysis was performed by two-way ANOVA followed by Bonferroni post hoc test. n=4-6 animals per group.

[2] = Repeated dose 28-day oral toxicity study; assay type: in vivo, mice
Method: FIG. 10A and 10B. […] Body weight gain in weeks (A) in males and (B) in females by 4 weeks. […] Body weight was measured once a week.
These experiments were conducted in compliance with the GLP principles. Morbidity, mortality, body weight in male (FIG. 10A) and female (FIG. 10B), food consumption as well as general and detailed clinical signs were evaluated. In the last week, urine samples from all animals were collected for analysis. At necropsy, blood samples were collected for hematological, biochemical and coagulation analyses, followed by tissue and organ collection for macroscopic and histopathological analyses.

[3] = female mice, 10 mg/kg oral once daily for 28 days
[4] = female mice, 80 mg/kg oral once daily for 28 days
[5] = female mice, 250 mg/kg oral once daily for 28 days
[6] = female mice, 10 mg/kg daily, 28 days
[7] = female mice, 80 mg/kg daily, 28 days
[8] = female mice, 250 mg/kg daily, 28 days
[9] = male mice, 10 mg/kg daily, 28 days
[10] = male mice, 80 mg/kg daily, 28 days
[11] = male mice, 250 mg/kg daily, 28 days

c1coc(CNc2ncnc3[nH]cnc23)c1 [MB-905, kinetin]
cardiovascular hemodynamic parameters (systolic, diastolic, mean blood pressure, heart rate) [1]: did not induces any changes
NOAEL at 28 days ([2]; both sexes, CD1, mouse, in vivo, mice, oral, 28-day study): 80 mg/kg
ALB (Albumin), Mean [2, 3]: 2.67 g/dL
ALT (Alanine aminotransferase), Mean [2, 3]: 43.72 U/L
AST (Aspartate Aminotransferase), Mean [2, 3]: 91.88 U/L
BT (Total Bilirubin), Mean [2, 3]: 0.39 mg/dL
CA (Calcium), Mean [2, 3]: 9.77 mg/dL
CRE (Creatinine), Mean [2, 3]: 0.29 mg/dL
CT (Total cholesterol), Mean [2, 3]: 98.17 mg/dL
FA (Alkaline phosphatase), Mean [2, 3]: 108.75 U/L
GGT (Gamma-glutamyltransferase), Mean [2, 3]: 0.00 U/L
GLUCOSE, Mean [2, 3]: 118.56 mg/dL
P (Phosphorus), Mean [2, 3]: 4.69 mg/dL
PT (Total protein), Mean [2, 3]: 5.84 g/dL
TRI (Triglycerides), Mean [2, 3]: 62.00 mg/dL
UREIA, Mean [2, 3]: 54.93 mg/dL
ALB (Albumin), Mean [2, 4]: 2.91 g/dL
ALT (Alanine aminotransferase), Mean [2, 4]: 52.50 U/L
AST (Aspartate Aminotransferase), Mean [2, 4]: 119.73 U/L
BT (Total Bilirubin), Mean [2, 4]: 0.41 mg/dL
CA (Calcium), Mean [2, 4]: 8.34 mg/dL
CRE (Creatinine), Mean [2, 4]: 0.25 mg/dL
CT (Total cholesterol), Mean [2, 4]: 119.86 mg/dL
FA (Alkaline phosphatase), Mean [2, 4]: 77.20 U/L
GGT (Gamma-glutamyltransferase), Mean [2, 4]: 0.00 U/L
GLUCOSE, Mean [2, 4]: 138.04 mg/dL
P (Phosphorus), Mean [2, 4]: 5.47 mg/dL
PT (Total protein), Mean [2, 4]: 5.99 g/dL
TRI (Triglycerides), Mean [2, 4]: 92.90 mg/dL
UREIA, Mean [2, 4]: 44.12 mg/dL
ALB (Albumin), Mean [2, 5]: 3.29 g/dL
ALT (Alanine aminotransferase), Mean [2, 5]: 44.84 U/L
AST (Aspartate Aminotransferase), Mean [2, 5]: 127.67 U/L
BT (Total Bilirubin), Mean [2, 5]: 0.34 mg/dL
CA (Calcium), Mean [2, 5]: 10.26 mg/dL
CRE (Creatinine), Mean [2, 5]: 0.30 mg/dL
CT (Total cholesterol), Mean [2, 5]: 126.67 mg/dL
FA (Alkaline phosphatase), Mean [2, 5]: 80.40 U/L
GGT (Gamma-glutamyltransferase), Mean [2, 5]: 0.20 U/L
GLUCOSE, Mean [2, 5]: 135.84 mg/dL
P (Phosphorus), Mean [2, 5]: 5.44 mg/dL
PT (Total protein), Mean [2, 5]: 6.79 g/dL
TRI (Triglycerides), Mean [2, 5]: 108.33 mg/dL
UREIA, Mean [2, 5]: 73.50 mg/dL
HCT [2, 6]: 40.60%
HGB [2, 6]: 13.58 g/dL
MCH [2, 6]: 17.51 pg
MCHC [2, 6]: 31.74 g/dL
MCV [2, 6]: 52.32 fL
PLT [2, 6]: 1.07322e+06 µL⁻¹
RBC [2, 6]: 7.76e+06 µL⁻¹
W-LCR [2, 6]: 36.41%
W-MCR [2, 6]: 5.03%
W-SCR [2, 6]: 57.60%
WBC [2, 6]: 1700 µL⁻¹
HCT [2, 7]: 39.78%
HGB [2, 7]: 13.31 g/dL
MCH [2, 7]: 17.50 pg
MCHC [2, 7]: 33.47 g/dL
MCV [2, 7]: 52.32 fL
PLT [2, 7]: 918000 µL⁻¹
RBC [2, 7]: 7.61e+06 µL⁻¹
W-LCR [2, 7]: 21.77%
W-MCR [2, 7]: 2.77%
W-SCR [2, 7]: 74.94 * %
WBC [2, 7]: 3590 µL⁻¹
HCT [2, 8]: 40.70%
HGB [2, 8]: 13.27 g/dL
MCH [2, 8]: 17.46 pg
MCHC [2, 8]: 33.03 g/dL
MCV [2, 8]: 52.80 fL
PLT [2, 8]: 780330 µL⁻¹
RBC [2, 8]: 7.61e+06 µL⁻¹
W-LCR [2, 8]: 22.91%
W-MCR [2, 8]: 3.10%
W-SCR [2, 8]: 73.06%
WBC [2, 8]: 4.88* ×10^3/μL
ALT [2, 9]: 43.99 U/L
AST [2, 9]: 105.30 U/L
BT [2, 9]: 0.67 mg/dL
CA [2, 9]: 9.91 mg/dL
CRE [2, 9]: 0.37 mg/dL
CT [2, 9]: 137.00 mg/dL
FA [2, 9]: 103.67 U/L
GGT [2, 9]: 2.33 U/L
GLUCOSE [2, 9]: 127.41 mg/dL
HCT [2, 9]: 38.33%
HGB [2, 9]: 12.51 g/dL
MCH [2, 9]: 17.12 pg
MCHC [2, 9]: 32.69 g/dL
MCV [2, 9]: 52.46 fL
PLT [2, 9]: 971900 µL⁻¹
PT [2, 9]: 5.56 g/dL
RBC [2, 9]: 7.3e+06 µL⁻¹
TRI [2, 9]: 94.50 mg/dL
UREIA [2, 9]: 60.48 mg/dL
W-LCR [2, 9]: 40.81 * %
W-MCR [2, 9]: 5.41%
W-SCR [2, 9]: 51.88 * %
WBC [2, 9]: 1610 µL⁻¹
ALT [2, 10]: 69.54 U/L
AST [2, 10]: 134.48 U/L
BT [2, 10]: 0.25 mg/dL
CA [2, 10]: 9.76 mg/dL
CRE [2, 10]: 0.28 mg/dL
CT [2, 10]: 154.56 mg/dL
FA [2, 10]: 69.67 U/L
GGT [2, 10]: 0.00 U/L
GLUCOSE [2, 10]: 129.24 mg/dL
HCT [2, 10]: 38.59%
HGB [2, 10]: 12.64 g/dL
MCH [2, 10]: 17.34 pg
MCHC [2, 10]: 32.76 g/dL
MCV [2, 10]: 53.00 fL
PLT [2, 10]: 1.03444e+06 µL⁻¹
PT [2, 10]: 5.74 g/dL
RBC [2, 10]: 7.28e+06 µL⁻¹
TRI [2, 10]: 116.7 mg/dL
UREIA [2, 10]: 30.02 * mg/dL
W-LCR [2, 10]: 16.37 * %
W-MCR [2, 10]: 3.36 * %
W-SCR [2, 10]: 79.52 * %
WBC [2, 10]: 4700 µL⁻¹
ALT [2, 11]: 57.17 U/L
AST [2, 11]: 124.78 U/L
BT [2, 11]: 0.43 mg/dL
CA [2, 11]: 10.38 mg/dL
CRE [2, 11]: 0.31 mg/dL
CT [2, 11]: 183.56 mg/dL
FA [2, 11]: 85.88 U/L
GGT [2, 11]: 0.50 U/L
GLUCOSE [2, 11]: 105.23 mg/dL
HCT [2, 11]: 40.41%
HGB [2, 11]: 13.26 g/dL
MCH [2, 11]: 17.03 pg
MCHC [2, 11]: 32.80 g/dL
MCV [2, 11]: 51.91 fL
PLT [2, 11]: 1.05633e+06 µL⁻¹
PT [2, 11]: 5.22 g/dL
RBC [2, 11]: 7.79e+06 µL⁻¹
TRI [2, 11]: 84.90 mg/dL
UREIA [2, 11]: 74.16 mg/dL
W-LCR [2, 11]: 20.89 * %
W-MCR [2, 11]: 4.17%
W-SCR [2, 11]: 74.40* %
WBC [2, 11]: 4110 µL⁻¹
histopathology, kidneys ([2]; mice, both sexes, 250 mg/kg): areas of basophilic proximal tubules and tubular dilatation
ophthalmological health ([2]; mice, either sex, 250 mg/kg): No changes
biochemical and hematological parameters ([2]; mice, male and female, 28 days, main groups): slight changes
histopathology, kidneys ([2]; mice, 10 mg/kg and 80 mg/kg, recovery group): not observed
macroscopic evaluation at necropsy ([2]; mice, 28 days): did not reveal significant changes
urine parameters (volume, specific gravity, pH, protein) ([2]; mice, 28 days, main groups): No significant changes

Reference: patent publication US20240207302A1, “ANTIVIRAL COMPOUNDS, METHODS FOR THE MANUFACTURING OF COMPOUNDS, ANTIVIRAL PHARMACEUTICAL COMPOSITION, USE OF THE COMPOUNDS AND METHOD FOR THE ORAL TREATMENT OF CORONAVIRUS INFECTION AND RELATED DISEASES THEREOF” (priority 2021, published 2024)
